Results published in patent publication US20080220072A1, “BIOLOGIC MODULATIONS WITH NANOPARTICLES” (priority 2002, published 2008).
pIC50: −log10 of the molar value.

How the values were obtained:
cancer cells = test: Growth inhibition, MTT/WST assay, antisense backbones; format: cell-based; conditions: maximal kill, 72 hours post treatment
Protocol: The efficacies of various nucleic acid backbone chemistries were investigated by delivering […] to cancer cells in organ culture using a collection of nanoparticles that were less than about 50 nm in diameter. Recurrent head neck tumors are typically small (1-2 cm), but based on volumetric scaling between in vitro tumor nests and mouse studies, it is estimated that estimate that a dose of 3 5 mg will be required to locally treat a 2 cm tumor. Various nucleic acid chemistries may reduce this amount by either enhancing binding affinity between the target mRNA and the antisense, using the antisense to bind to DNA instead of RNA, or increasing nuclease resistance (and half-life). […] Biological activity was assayed as growth inhibition using the MTT/WST assay in a 96 well format. Cells were seeded at 20,000 per well, treated 18 hours later, then assayed at 72 hours post treatment. Although the cells are resistant to conventional chemotherapeutic agents, cisplatin activity is shown for reference (black line). […] Additional formats screened but not shown were a phosphodiester/2OME chimeric and the siRNA format.

SCC-15 = test: Growth inhibition in chemoresistant head neck cancer cell line; format: cell-based, human
Protocol: Antisense molecules were tested for growth inhibition against the chemoresistant head neck cancer cell line SCC-15 at 10,000 cells per well, the cells being pretreated with tenascin, with results as shown in FIG. 5B-C. Referring to FIG. 5B, PO refers to phosphodiester antisense referred to as asCK2 in Table 9 (SEQ ID NO 1), PO sense refers to phosphodiester sense sequence complementary to asCK2, siRNA refers to a duplex RNA sequence that is screened from the asCk2 sequence, 2OME RNA refers to a nucleic acid of the sequence SEQ ID NO 1 that is all RNA and is al methylated, and PO RNA refers to a proprietary chimeric molecule having the sequence of SEQ ID NO 1 but being a mixture of RNA and DNA and having phosphodiester and 2OME backbone. […] Because of it's capacity for being metabolized, the PO RNA construct within the context of a colloidal formulation will offer advantages in safety for delivery of cytotoxic constructs.
Referring to FIG. 5C, cisplatin TN/x s-50 refers to nanoparticles comprising cisplatin and a 1:1 w/w ratio of tenascin:dextran. Tn s-50 refers to nanoparticles comprising cisplatin and tenascin, asCK2 TN s-50 refers to nanoparticles comprising tenascin and asCK2 antisense of sequence SEQ ID NO 1, and free cisplatin refers to cisplatin added to the cell medium.

[1] = tested on: metastatic variant of Alva-41 prostate carcinoma cells; test: Growth inhibition by nanoencapsulated cisplatin; format: cell-based, human; conditions: 5,000 cells per well, 72 hours
Protocol: Cisplatin was nanoencapsulated into the various candidate tumor binding agents as described previously and nanoparticles were compared for growth inhibition in a metastatic variant of Alva-41 prostate carcinoma cells and Ca-9-22. Formulas were tested in duplicate in two separate experiments. Results are illustrated for the prostate cell line in FIG. 5D. Referring to FIG. 5D, PEX-MMP-1/Cisplatin refers to s50 nanoparticles comprising cisplatin and the Recombinant Pex binding domain of membrane-associated Matrix Metalloproteinase-1 (see Bello et. al, Cancer Research (2001) 61: 8730-36); Tenascin/Cisplatin refers to s50 nanoparticles having tenascin and cisplatin, FN-PHSCN/Cisplatin refers to nanoparticles comprising the FN-PHSCN fragment and cisplatin, Osteonecetin/asCK2 refers to s50 nanoparticles comprising osteonectin and the asCK2 antisense sequence, galectin-3/cisplatin refers to s50 nanoparticles comprising galectin-3 and cisplatin, hyaluronan/cisplatin refers to s50 nanoparticles comprising hyaluronan and cisplatin, and naked cisplatin refers to the addition of free cisplatin to the cell medium. In these experiments cells were plated at 5,000 per well and followed for 72 hours. […] As a comparison, based on a standard male patient, an acceptable in vitro dose of cisplatin would correspond to about 10 μg/ml or 30 μM. […]

[2] = tested on: hormone-insensitive PC3 cells; test: Growth inhibition in prostate carcinoma cells; format: cell-based; conditions: PC3, 5,000 cells per untreated well
Protocol: (§1) In these studies, cells were seeded at 5,000 cells per untreated well.

[3] = tested on: hormone-sensitive Alva-41 prostate carcinoma cells; test: Growth inhibition in prostate carcinoma cells; format: cell-based, human; conditions: Alva-41, 5,000 cells per untreated well
Protocol: as §1

2-0 methyl RNA format: nucleic acid of the sequence SEQ ID NO 1 that is all RNA and methylated, in s50 nanoparticles (GTCCCGACATGTCAGACAGG; all 2'-O-methyl, backbone and T or U not given here; formulated in s50 nanoparticles)
complete kill achieved in vitro (cancer cells): capacity for complete kill

N.N.[Cl][Pt][Cl] [free cisplatin, cisplatin, reference compound]
overall in vitro kill (SCC-15; SCC-15, FIG. 5C): zero
pIC50 [1]: 4.00

SEQ ID NO 1: GTCCCGACATGTCAGACAGG; phosphodiester antisense 20mer to CK2α translation start site (antisense GTCCCGACATGTCAGACAGG; all phosphodiester, sugars by position and methylation of C not given here)
pIC50 [2]: 4.40
pIC50 [3]: 4.82

PO RNA: chimeric molecule with sequence of SEQ ID NO 1, mixture of RNA and DNA, phosphodiester and 2OME backbone (antisense GTCCCGACATGTCAGACAGG; RNA/DNA chimera, phosphodiester and 2'-O-methyl, chemistry not fully specified)
pIC50 (SCC-15; SCC-15, 10,000 cells per well, pretreated with tenascin): 5.52
